Values joined by “and” are separate entries in the source; they are usually repeats but may differ in a detail not shown here. Equal values may be shown once. Read-outs that look alike come from different tables or passages of the source.
Experiment: Crossover pharmacokinetic study of Bumetanide Dibenzylamide formulations (IN, SL, IM, PO, SC, IR) in Beagle dogs, plasma LC-MS/MS
Format: in vivo
Conditions: for half-life: read-out: t½ (converted)
Method: Male and female Beagle dogs are assigned to two groups with 2 males and 2 females in each group. The study is conducted in 3 legs with Leg 1 consisting of IM and SL administration, Leg 2 consisting of IN and PO administration, and Leg 3 consisting of SC and IR administration.
During intranasal administration, the composition is administered by gently tilting the animals head back and the intranasal dose is delivered via a syringe and atomizer. During sublingual administration, the composition is administered via a quick dissolving tablet. The tablet is placed in the sublingual space and the mouth held shut for approximately 60-90 seconds. After one minute, the mouth of the animal is opened to confirm that the tablet has fully dissolved. During intramuscular administration, the composition is administered into the bicep femoris (rear thigh). The dose site is gently shaved prior to dosing. A syringe with a 25 g needle is utilized. During oral administration, the composition is administered via three capsules placed at the back of the animal's mouth and the placement is followed by a 10 mL drinking water flush to assure that the animal swallowed the capsules. During subcutaneous administration, the composition is administered into the dorsal subcutaneous space directly at the scruff of the neck of the animal. The dose site is gently shaved prior to dosing. A syringe with a 25 g needle is utilized. During intrarectal administration, the composition is administered by gently placing a 1 cc syringe in the rectum of the animal.
All animals are fasted for approximately 12 hours prior to dosing. Animals are fed four hours post dosing with water offered ad libitum throughout the study. All animals completed the study. […] Blood and urine samples are collected out to 24 hours.
Blood sample are collected from the jugular vein, or other suitable vessel via direct venipuncture, placed into a chilled tube containing K2EDTA as the anticoagulant, and inverted several times to mix. Blood samples are kept on wet ice until centrifugation.
The assay is verified with respect to standard bioanalytical methodology including acceptable accuracy and precision based upon quality control sample analysis and results. The range of the method for both analytes is from about 0.250 ng/ml to about 250 ng/mL.
The PK parameters defined in Table 10 are calculated by non-compartmental methods using individual animal concentration-time data. […] Nominal blood sampling times are used in the analysis. […] Individual below quantitation limits (BQL) results are set to zero for all calculations. No animals are excluded from the analysis. In one aspect, non-compartmental pharmacokinetic analysis provides observed or calculated values of Cmax, Tmax, and AUClast for all animals and estimates of AUCinf and CL/F for those animals where a terminal phase half-life (t1/2) could be estimated.

[1] = both sexes, Beagle, dog, plasma, po, 30 mg, PO capsules
[2] = both sexes, Beagle, dog, plasma, sc, 15 mg

Plasma Bumetanide Dibenzylamide concentration (IN, 15 mg, 24 h): 3.15 ng/mL and 2.07 ng/mL and 1.59 ng/mL | Plasma Bumetanide Dibenzylamide concentration (IN, 15 mg, 24 h, mean): 2.31 ng/mL | CL/F (IN, 15 mg, mean): 72.5 L/h | Mean concentrations of Bumetanide Dibenzylamide (IR, 30 mg, at all times after dosing): less than 10 ng/mL | t½ (PO capsules, 30 mg): 5.62 h and 6.79 h and 5.10 h | Plasma Bumetanide Dibenzylamide concentration (PO capsules, 30 mg, 2 h): 280 ng/mL and 158 ng/mL and 175 ng/mL | Plasma Bumetanide Dibenzylamide concentration (PO capsules, 30 mg, 2 h, mean): 218 ng/mL | Plasma Bumetanide Dibenzylamide concentration (PO capsules, 30 mg, 4 h): 85.3 ng/mL and 68.7 ng/mL and 56.9 ng/mL | Plasma Bumetanide Dibenzylamide concentration (PO capsules, 30 mg, 4 h, mean): 76.7 ng/mL | Plasma Bumetanide Dibenzylamide concentration (PO capsules, 30 mg, 8 h): 21.2 ng/mL and 21.9 ng/mL and 15.7 ng/mL | Plasma Bumetanide Dibenzylamide concentration (PO capsules, 30 mg, 8 h, mean): 20.1 ng/mL | Plasma Bumetanide Dibenzylamide concentration (PO capsules, 30 mg, 12 h): 8.65 ng/mL and 10.5 ng/mL and 7.91 ng/mL | Plasma Bumetanide Dibenzylamide concentration (PO capsules, 30 mg, 12 h, mean): 9.34 ng/mL | Plasma Bumetanide Dibenzylamide concentration (PO capsules, 30 mg, 24 h): 2.86 ng/mL and 2.84 ng/mL and 2.83 ng/mL | Plasma Bumetanide Dibenzylamide concentration (PO capsules, 30 mg, 24 h, mean): 2.71 ng/mL | AUClast (PO capsules, 30 mg, mean): 791 ng·h/mL | CL/F (PO capsules, 30 mg, mean): 37.9 L/h | t½ (PO capsules, 30 mg, mean): 5.85 h | t½ (SC, 15 mg): 36.2 h and 22.2 h and 19.1 h | Plasma Bumetanide Dibenzylamide concentration (SC, 15 mg, 0 h): 1.65 ng/mL and 2.39 ng/mL and 1.55 ng/mL | Plasma Bumetanide Dibenzylamide concentration (SC, 15 mg, 0 h, mean): 1.75 ng/mL | Plasma Bumetanide Dibenzylamide concentration (SC, 15 mg, 0.5 h): 2.76 ng/mL and 3.42 ng/mL and 1.81 ng/mL | Plasma Bumetanide Dibenzylamide concentration (SC, 15 mg, 0.5 h, mean): 2.52 ng/mL | Plasma Bumetanide Dibenzylamide concentration (SC, 15 mg, 8 h): 4.54 ng/mL and 7.47 ng/mL and 4.14 ng/mL | Plasma Bumetanide Dibenzylamide concentration (SC, 15 mg, 8 h, mean): 5.71 ng/mL | Plasma Bumetanide Dibenzylamide concentration (SC, 15 mg, 12 h): 3.35 ng/mL and 5.77 ng/mL and 3.22 ng/mL | Plasma Bumetanide Dibenzylamide concentration (SC, 15 mg, 12 h, mean): 4.36 ng/mL | Plasma Bumetanide Dibenzylamide concentration (SC, 15 mg, 24 h): 2.43 ng/mL and 4.30 ng/mL and 2.90 ng/mL | Plasma Bumetanide Dibenzylamide concentration (SC, 15 mg, 24 h, mean): 3.33 ng/mL | AUClast (SC, 15 mg, mean): 113 ng·h/mL | CL/F (SC, 15 mg, mean): 68.2 L/h | t½ (SC, 15 mg, mean): 24.8 h | CL/F (SL, 30 mg): 1690 L/h | Tmax (SL, 30 mg): 1.00 h | Tmax (SL, 30 mg, mean): 1.50 h | AUC(0-inf) (both sexes, Beagle, dog, plasma, 30 mg, IR): 55.1 ng·h/mL | Cmax (both sexes, Beagle, dog, plasma, 30 mg, IR, 30 mg, read-out: mean Cmax): 8.44 ng/mL | AUC(0-inf) (both sexes, Beagle, dog, plasma, 30 mg, SL): 17.7 ng·h/mL | Tmax (both sexes, Beagle, dog, plasma, 30 mg, SL, 30 mg, read-out: Tmax): 2 h | half-life (both sexes, Beagle, dog, plasma, 30 mg, SL, 30 mg): 5.26 h | AUC(0-inf) (both sexes, Beagle, dog, plasma, inhaled or intranasal, 15 mg, IN): 211 ng·h/mL | AUC(0-inf) [1]: 814 ng·h/mL | AUC(0-t) [1]: 956 ng·h/mL | Cmax (both sexes, Beagle, dog, plasma, po, 30 mg, PO capsules, 30 mg, read-out: Cmax): 218 ng/mL | Tmax (both sexes, Beagle, dog, plasma, po, 30 mg, PO capsules, 30 mg, read-out: Tmax): 2 h | half-life (both sexes, Beagle, dog, plasma, po, 30 mg, PO capsules, 30 mg): 5.89 h | AUC(0-inf) [2]: 231 ng·h/mL | AUC(0-t) [2]: 153 ng·h/mL | half-life (both sexes, Beagle, dog, plasma, sc, 15 mg, SC, 15 mg): 21.5 h
SMILES: CCCCNc1cc(C(=O)N(Cc2ccccc2)Cc2ccccc2)cc(S(N)(=O)=O)c1Oc1ccccc1 [Bumetanide Dibenzylamide, N, N-dibenzyl 3-aminosulfonyl-5-butylamino-4-phenoxybenzamide]
AUCinf (IN, 15 mg): 234 ng·h/mL and 224 ng·h/mL and 164 ng·h/mL and 221 ng·h/mL | CL/F (IN, 15 mg): 64.1 L/h and 66.8 L/h and 91.5 L/h and 67.7 L/h | AUCinf (PO capsules, 30 mg): 980 ng·h/mL and 698 ng·h/mL and 666 ng·h/mL and 910 ng·h/mL | AUClast (PO capsules, 30 mg): 675 ng·h/mL and 639 ng·h/mL and 893 ng·h/mL | CL/F (PO capsules, 30 mg): 30.6 L/h and 43.0 L/h and 45.0 L/h and 33.0 L/h | Cmax (PO capsules, 30 mg): 280 ng/mL and 158 ng/mL and 175 ng/mL and 259 ng/mL | AUCinf (SC, 15 mg): 286 ng·h/mL and 247 ng·h/mL and 158 ng·h/mL | AUClast (SC, 15 mg): 79.8 ng·h/mL and 129 ng·h/mL and 91.3 ng·h/mL | CL/F (SC, 15 mg): 52.4 L/h and 64.8 L/h and 60.7 L/h and 94.7 L/h | adverse reactions (all routes, 15 or 30 mg): no adverse reactions are noted

From patent US20250120932A1, “PHARMACEUTICAL COMPOSITION” (NEUROPRO THERAPEUTICS, INC., priority 2021, published 2025)
